Each block holds one molecule with its values, some of them ahead of it.
Assays:
[1] = molecular target: α-glucosidase (Saccharomyces cerevisiae, UniProt P53341); assay: Inhibition mechanism study of α-glucosidase inhibitor (enzyme concentration plots, Lineweaver-Burk plots); assay type: biochemical; settings: for Inhibition type against α-glucosidase: Lineweaver-Burk plots; for KIS value (μM) against α-glucosidase: binding of inhibitor to enzyme-substrate complex; for Reversibility of α-glucosidase inhibition: plots of enzyme concentration vs remaining enzyme activity
Description: The relationship of enzyme concentration with enzyme activity in presence of compounds 5e, 5 g, and 5 h was firstly investigated.
The inhibitory kinetics of compounds 5e, 5 g, and 5 h on α-glucosidase were studied using Lineweaver-Burk plots.
Besides, we also determined the equilibrium constants of binding of inhibitors to free enzymes (KI) and enzyme-substrate complexes (KIS) through plots of slope (Km/Vm) and vertical intercept (1/Vm) vs inhibitor concentration.
(§1) The inhibition mechanism of compounds 5 g, 5e, and 5 h was analysed using similar above method. The enzyme inhibitory kinetics was detected using plots of enzyme concentration vs remaining enzyme activity at different inhibitor concentrations, and the substrate inhibitory kinetics was obtained from Lineweaver-Burk plot of remaining enzyme activity vs substrate concentration in the presence of different inhibitor concentrations.[32]

[2] = system: 3T3-L1 cells; assay: In vitro cytotoxicity assay (MTT) on 3T3-L1 cells; assay type: cell-based, Mouse; settings: 20 ∼ 80 μM, 24 h
Description: (§2) Moreover, the preliminary in vitro safety of compounds 5e, 5 g, 5 h, and 5 s were tested on Mouse Preadipocytes cells (3T3-L1) and Human liver cancer cells (HepG2) using MTT method and the results were shown in Figure 11.
(§3) The 3T3-L1 cells or HepG2 cells were cultured in DMEM medium containing 10% foetal bovine serum, 100 U/mL penicillin and 0.1 mg/mL streptomycin in a humidified incubator with a 5% CO2 atmosphere at 37 °C. Cells in the logarithmic growth phase were used for this assay. After 5 × 10^3 3T3-L1 cells were seeded in 96 well plates for 24 h, compound with different concentration was added into each well for 24 h. MTT reagent (100 μL, 0.5 mg/mL) was added to each well for 4 h incubation. After the supernatant was discarded, 100 μL of DMSO was added. The absorbance was measured at 490 nm. Each sample was performed in 3 parallel experiments.

[3] = system: HepG2 cells; assay: In vitro cytotoxicity assay (MTT) on HepG2 cells; assay type: cell-based, Human; settings: 20 ∼ 80 μM, 24 h
Description: as §2, §3

[4] = molecular target: T1, α-amylase (Sus scrofa, UniProt P00690); assay: Inhibition mechanism study of α-amylase inhibitor (enzyme concentration plots, Lineweaver-Burk plots); assay type: biochemical; settings: for Inhibition type against α-amylase: Lineweaver-Burk plots; for KIS value (μM) against α-amylase: binding of inhibitor to enzyme-substrate complex; for Reversibility of α-amylase inhibition: plots of enzyme concentration vs remaining enzyme activity
T1 sequence (P00690 16-511): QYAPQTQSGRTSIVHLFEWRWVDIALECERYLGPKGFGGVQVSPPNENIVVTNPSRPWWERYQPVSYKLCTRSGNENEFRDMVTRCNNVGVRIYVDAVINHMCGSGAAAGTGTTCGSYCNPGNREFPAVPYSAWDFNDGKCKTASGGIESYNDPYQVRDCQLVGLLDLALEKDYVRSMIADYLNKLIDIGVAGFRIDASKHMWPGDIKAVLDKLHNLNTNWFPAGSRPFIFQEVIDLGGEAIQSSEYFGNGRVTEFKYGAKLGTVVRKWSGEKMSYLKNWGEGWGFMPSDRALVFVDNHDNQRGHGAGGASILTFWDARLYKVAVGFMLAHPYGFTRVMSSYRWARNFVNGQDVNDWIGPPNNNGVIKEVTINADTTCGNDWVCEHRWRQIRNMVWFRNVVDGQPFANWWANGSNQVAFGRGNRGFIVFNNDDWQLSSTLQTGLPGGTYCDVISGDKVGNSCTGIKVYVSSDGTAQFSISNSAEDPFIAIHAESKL
Description: The highest potent inhibitory compounds 5 g, 5 h, and 5 s were evaluated their inhibition mechanism. […] Lineweaver-Burk plots were used to analyse the inhibitory kinetics of compounds 5 g, 5 h, and 5 s. […] Besides, the KI and KIS values of compounds 5 g, 5 h, and 5 s were measured, showing KI values were higher than KIS values (Table 3).
as §1, with “5 h,” for “5e,”, “5S” for “5 h”, “also analysed.” for “analysed using similar above method.”, “concentrations.” for “concentrations.[32]”

α-glucosidase, sequence (P53341 whole entry): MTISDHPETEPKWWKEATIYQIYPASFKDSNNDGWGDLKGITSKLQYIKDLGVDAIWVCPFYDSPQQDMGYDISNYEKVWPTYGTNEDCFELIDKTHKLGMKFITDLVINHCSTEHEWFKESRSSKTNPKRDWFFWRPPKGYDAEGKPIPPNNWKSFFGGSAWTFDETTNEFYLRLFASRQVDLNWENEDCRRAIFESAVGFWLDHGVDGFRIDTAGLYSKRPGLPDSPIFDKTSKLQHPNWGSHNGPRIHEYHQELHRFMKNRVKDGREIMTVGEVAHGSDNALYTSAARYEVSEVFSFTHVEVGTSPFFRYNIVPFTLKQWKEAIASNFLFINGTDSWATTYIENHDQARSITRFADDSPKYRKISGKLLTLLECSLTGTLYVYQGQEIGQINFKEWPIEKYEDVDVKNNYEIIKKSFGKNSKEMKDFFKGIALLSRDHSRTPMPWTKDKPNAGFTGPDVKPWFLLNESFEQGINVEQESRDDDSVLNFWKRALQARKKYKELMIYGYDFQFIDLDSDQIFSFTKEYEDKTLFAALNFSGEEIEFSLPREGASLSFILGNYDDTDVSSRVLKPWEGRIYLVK

- melting point: 173.9 to 178.3 °C
Structure (SMILES): N#CC(c1c[nH]c2ccccc12)c1c[nH]c2ccccc12 [Compound 5a, 2,2-Di(1H-indol-3-yl)acetonitrile]

- melting point: 182.7 to 187.5 °C
Structure (SMILES): N#CC(c1c[nH]c2ccc(F)cc12)c1c[nH]c2ccc(F)cc12 [Compound 5b, 2,2-Bis(5-fluoro-1H-indol-3-yl)acetonitrile]

- melting point: 230 to 235.8 °C
Structure (SMILES): N#CC(c1c[nH]c2cccc(Cl)c12)c1c[nH]c2cccc(Cl)c12 [Compound 5c, 2,2-Bis(4-chloro-1H-indol-3-yl)acetonitrile]

- melting point: 168 to 173.4 °C
Structure (SMILES): N#CC(c1c[nH]c2ccc(Cl)cc12)c1c[nH]c2ccc(Cl)cc12 [Compound 5d, 2,2-Bis(5-chloro-1H-indol-3-yl)acetonitrile]

- Inhibition type against α-glucosidase [1]: mixed-type inhibitors
- KIS value (μM) against α-glucosidase [1]: 2.11 µM
- Reversibility of α-glucosidase inhibition [1]: reversible
- melting point: 175.6 to 178.2 °C
Structure (SMILES): N#CC(c1c[nH]c2cc(Cl)ccc12)c1c[nH]c2cc(Cl)ccc12 [Compound 5e, 2,2-Bis(6-chloro-1H-indol-3-yl)acetonitrile]
- Effect on the viability of 3T3-L1 cells [2]: no effect on the viability
- Effect on the viability of HepG2 cells [3]: no effect on the viability

- melting point: 162.2 to 168.8 °C
Structure (SMILES): N#CC(c1c[nH]c2c(Cl)cccc12)c1c[nH]c2c(Cl)cccc12 [Compound 5f, 2,2-Bis(7-chloro-1H-indol-3-yl)acetonitrile]

Structure (SMILES): N#CC(c1c[nH]c2ccc(Br)cc12)c1c[nH]c2ccc(Br)cc12 [Compound 5g, 2,2-Bis(5-bromo-1H-indol-3-yl)acetonitrile]
- Inhibition type against α-glucosidase [1]: Mixed type
- Inhibition type against α-glucosidase ([1]; listed as 5 g): mixed-type inhibitors
- KIS value (μM) against α-glucosidase [1]: 1.59 µM
- Reversibility of α-glucosidase inhibition [1]: reversible
- Inhibition type against α-amylase [4]: Mixed type
- Inhibition type against α-amylase ([4]; listed as 5 g): mixed inhibitors
- KIS value (μM) against α-amylase [4]: 25.02 µM
- Reversibility of α-amylase inhibition [4]: reversibly inhibited
- Effect on the viability of 3T3-L1 cells [2]: no effect on the viability
- Effect on the viability of HepG2 cells [3]: no effect on the viability

Structure (SMILES): N#CC(c1c(-c2ccccc2)[nH]c2ccccc12)c1c(-c2ccccc2)[nH]c2ccccc12 [Compound 5h, 2,2-Bis(2-phenyl-1H-indol-3-yl)acetonitrile]
- Inhibition type against α-glucosidase [1]: Mixed type
- Inhibition type against α-glucosidase ([1]; listed as 5 h): mixed-type inhibitors
- KIS value (μM) against α-glucosidase [1]: 1.69 µM
- Reversibility of α-glucosidase inhibition [1]: reversible
- Inhibition type against α-amylase [4]: Mixed type
- Inhibition type against α-amylase ([4]; listed as 5 h): mixed inhibitors
- KIS value (μM) against α-amylase [4]: 1.63 µM
- Reversibility of α-amylase inhibition [4]: reversibly inhibited
- Effect on the viability of 3T3-L1 cells [2]: no effect on the viability
- Effect on the viability of HepG2 cells [3]: no effect on the viability
- melting point: 112 to 117.9 °C

- melting point: 231.2 to 236.6 °C
Structure (SMILES): Cc1[nH]c2ccccc2c1C(C#N)c1c(C)[nH]c2ccccc12 [Compound 5i, 2,2-Bis(2-methyl-1H-indol-3-yl)acetonitrile]

- melting point: 246.2 to 250.1 °C
Structure (SMILES): Cc1cccc2[nH]cc(C(C#N)c3c[nH]c4cccc(C)c34)c12 [Compound 5j, 2,2-Bis(4-methyl-1H-indol-3-yl)acetonitrile]

- melting point: 205.1 to 210.1 °C
Structure (SMILES): Cc1ccc2[nH]cc(C(C#N)c3c[nH]c4ccc(C)cc34)c2c1 [Compound 5k, 2,2-Bis(5-methyl-1H-indol-3-yl)acetonitrile]

- melting point: 178.4 to 183.7 °C
Structure (SMILES): Cc1ccc2c(C(C#N)c3c[nH]c4cc(C)ccc34)c[nH]c2c1 [Compound 5l, 2,2-Bis(6-methyl-1H-indol-3-yl)acetonitrile]

- melting point: 214.1 to 219.4 °C
Structure (SMILES): Cc1cccc2c(C(C#N)c3c[nH]c4c(C)cccc34)c[nH]c12 [Compound 5m, 2,2-Bis(7-methyl-1H-indol-3-yl)acetonitrile]

- melting point: 183.4 to 188 °C
Structure (SMILES): Cc1[nH]c2ccc(F)cc2c1C(C#N)c1c(C)[nH]c2ccc(F)cc12 [Compound 5n, 2,2-Bis(5-fluoro-2-methyl-1H-indol-3-yl)acetonitrile]

- melting point: 231.2 to 236.4 °C
Structure (SMILES): Cc1ccc2[nH]c(C)c(C(C#N)c3c(C)[nH]c4ccc(C)cc34)c2c1 [Compound 5o, 2,2-Bis(2,5-dimethyl-1H-indol-3-yl)acetonitrile]

- melting point: 118.5 to 123 °C
Structure (SMILES): COc1ccc2[nH]cc(C(C#N)c3c[nH]c4ccc(OC)cc34)c2c1 [Compound 5p, 2,2-Bis(5-methoxy-1H-indol-3-yl)acetonitrile]

- melting point: 259.6 to 266.9 °C
Structure (SMILES): COC(=O)c1ccc2[nH]cc(C(C#N)c3c[nH]c4ccc(C(=O)OC)cc34)c2c1 [Compound 5q, Dimethyl 3,3'-(cyanomethylene)bis(1H-indole-5-carboxylate)]

- melting point: 70.3 to 74.6 °C
Structure (SMILES): Cn1cc(C(C#N)c2cn(C)c3ccccc23)c2ccccc21 [Compound 5r, 2,2-Bis(1-methyl-1H-indol-3-yl)acetonitrile]

Structure (SMILES): Cn1cc(C(C#N)c2cn(C)c3ccc(Br)cc23)c2cc(Br)ccc21 [Compound 5s, 2,2-Bis(5-bromo-1-methyl-1H-indol-3-yl)acetonitrile]
- Inhibition type against α-amylase [4]: Mixed type
- Inhibition type against α-amylase ([4]; listed as 5 s): mixed inhibitors
- KIS value (μM) against α-amylase [4]: 9.01 µM
- Reversibility of α-amylase inhibition [4]: reversibly inhibited
- Effect on the viability of 3T3-L1 cells [2]: no effect on the viability
- Effect on the viability of HepG2 cells [3]: no effect on the viability
- melting point: 177.7 to 181.7 °C

- melting point: 87.5 to 93.4 °C
Structure (SMILES): CCOC(=O)CNc1ccc(C(C#N)c2ccc(NCC(=O)OCC)cc2)cc1 [Compound 7b, Diethyl 2,2’-(((cyanomethylene)bis(4,1-phenylene))bis(azanediyl))diacetate]

- melting point: 135.7 to 140.8 °C
Structure (SMILES): COC(=O)CNc1ccc(C(C#N)c2ccc(NCC(=O)OC)cc2)cc1 [Compound 7c, Dimethyl 2,2’-(((cyanomethylene)bis(4,1-phenylene))bis(azanediyl))diacetate]

Source: article PMC8409970, “In vitro and in silico studies of bis (indol-3-yl) methane derivatives as potential α-glucosidase and α-amylase inhibitors” (Journal of Enzyme Inhibition and Medicinal Chemistry, 2021)
